This is an account of results in patent US4346173A, “Process for the production of acyl-Coenzyme A oxidase” (Toyo Jozo Kabushiki Kaisha, priority 1979, dated 1982).

The term Km denotes the substrate concentration at which the rate is half of its maximum.

Holding throughout (test): Acyl-CoA oxidase assay (hydrogen peroxide colorimetry at 545 nm), Km value
For data set [1], the system named is acyl-CoA oxidase of Macrophomina phaseoli ATCC 14383. The class given is biochemical. The following applies: substrate of the assay method: palmitoyl-CoA; 37° C.; phosphate buffer pH 7.0 or tris-HCl buffer pH 8.0. The protocol: (§1) Enzyme solution (10 μl) is added to a reaction mixture (0.5 ml) consisting of 0.2 M phosphate buffer (pH 7.0) or 0.2 M tris-HCl buffer (pH 8.0) (0.1 ml), 5 mM 4-aminoantipyrine (0.05 ml), 3 mM diethyl m-toludine (0.05 ml), peroxidase (0.5 mg/ml, 0.05 ml), 25 mM palmitoyl-CoA (0.02 ml) and distilled water (0.23 ml) and the mixture is incubated at 37° C. for 10 minutes. 4 M urea (0.5 ml) is added to stop the reaction, and 1% by weight of Triton X-100 (2 ml) is added thereto and the generated hydrogen peroxide is measured at 545 nm by colorimetry.
(§2) A unit (1 unit, 1 U) of enzyme activity is defined as the activity of enzyme which generates 1μ mole of hydrogen peroxide per minute.

The test system of data set [2] is acyl-CoA oxidase of Aspergillus candidus M-4815. The class given is biochemical. The settings on record: substrate of the assay method: palmitoyl-CoA; 37° C.; phosphate buffer pH 7.0 or tris-HCl buffer pH 8.0. The method, then: as §1, §2
For data set [3], the system named is acyl-CoA oxidase of Cladosporium resinae IFO 6367. The class given is biochemical. The settings on record: substrate of the assay method: palmitoyl-CoA; 37° C.; phosphate buffer pH 7.0 or tris-HCl buffer pH 8.0. The protocol: as §1, §2
In data set [4] the test system is acyl-CoA oxidase of Monascus sp. M-4800. It counts as biochemical. The settings on record: substrate of the assay method: palmitoyl-CoA; 37° C.; phosphate buffer pH 7.0 or tris-HCl buffer pH 8.0. The protocol:
as §1, §2

Data set [5] relates to acyl-CoA oxidase of Arthrobacter sp. B-0720. It counts as biochemical. The following applies: substrate of the assay method: palmitoyl-CoA; 37° C.; phosphate buffer pH 7.0 or tris-HCl buffer pH 8.0. The method, then:
as §1, §2

Substrate in data set [6]: CCCCCCCCCCCCCCCC(=O)SCCNC(=O)CCNC(=O)[C@H](O)C(C)(C)COP(=O)(O)OP(=O)(O)OC[C@H]1O[C@@H](n2cnc3c(N)ncnc32)[C@H](O)[C@@H]1OP(=O)(O)O
It counts as biochemical, Saccharomyces cerevisiae. The settings on record: other: substrate of the assay method: palmitoyl-CoA, 37° C., phosphate buffer pH 7.0 or tris-HCl buffer pH 8.0. The method, then: as §1, §2

`CCCCCCCCCCCCCCCC(=O)SCCNC(=O)CCNC(=O)[C@H](O)C(C)(C)COP(=O)(O)OP(=O)(O)OC[C@H]1O[C@@H](n2cnc3c(N)ncnc32)[C@H](O)[C@@H]1OP(=O)(O)O` [palmitoyl-CoA]: the Km in data set [1] was found to be 87 µM; in data set [2] it was 110 µM; in data set [3] it was 120 µM; in data set [4], 150 µM; in data set [5] it was 130 µM.

B1: acyl-CoA oxidase of Saccharomyces cerevisiae (strain Y 0036) (Saccharomyces cerevisiae S288C) (protein)
chain: MTRRTTINPDSVVLNPQKFIQKERADSKIKVDQVNTFLESSPERRTLTHALIDQIVNDPILKTDTDYYDAKKMQEREITAKKIARLASYMEHDIKTVRKHFRDTDLMKELQANDPDKASPLTNKDLFIFDKRLSLVANIDPQLGTRVGVHLGLFGNCIKGNGTDEQIRYWLQERGATLMKGIYGCFAMTELGHGSNVAQLQTRAVYDKQNDTFVIDTPDLTATKWWIGGAAHSATHAAVYARLIVEGKDYGVKTFVVPLRDPSTFQLLAGVSIGDIGAKMGRDGIDNGWIQFRNVVIPREFMLSRFTKVVRSPDGSVTVKTEPQLDQISGYSALLSGRVNMVMDSFRFGSKFATIAVRYAVGRQQFAPRKGLSETQLIDYPLHQYRVLPQLCVPYLVSPVAFKLMDNYYSTLDELYNASSSAYKAALVTVSKKLKNLFIDSASLKATNTWLIATLIDELRQTCGGHGYSQYNGFGKGYDDWVVQCTWEGDNNVLSLTSAKSILKKFIDSATKGRFDNTLDVDSFSYLKPQYIGSVVSGEIKSGLKELGDYTEIWSITLIKLLAHIGTLVEKSRSIDSVSKLLVLVSKFHALRCMLKTYYDKLNSRDSHISDEITKESMWNVYKLFSLYFIDKHSGEFQQFKIFTPDQISKVVQPQLLALLPIVRKDCIGLTDSFELPDAMLNSPIGYFDGDIYHNYFNEVCRNNPVEADGAGKPSYHALLSSMLGRGFEFDQKLGGAANAEILSKINK
notes: endogenous in cells; host or cells: Saccharomyces cerevisiae Y 0036 (FERM-P No. 5174; enzyme of the producing strain itself)
In the case of B1, the Km in data set [6] stood at 500 µM.
